The conditions of data set [1]: rat behavioral model; cited from earlier work.
For data set [2] the following is noted: rats; cited from earlier work.
A further data set in a line: Water solubility. Conditions: statement in words. In kind it is physicochemical.

These results are taken from article PMC3725993 (Bioorganic & medicinal chemistry letters, 2013).

For `CN1[C@@H](CC(=O)c2ccccc2)CCC[C@H]1C[C@H](O)c1ccccc1` [(−)-Lobeline], the “rewarding effects of methamphetamine” value in data set [1] is listed as “decrease”.

As to `COc1ccc(CC[C@H]2CCC[C@@H](CCc3ccc(OC)cc3)N2C[C@@H](O)CO)cc1` [Compound 3], in data set [2], the “METH self-administration (SA) and reward” value is “blocked”; the responding for food result is “no effect”.

Take `COc1ccc(CC[C@@H]2CC[C@H](CCc3ccc(OC)cc3)N2C[C@@H](O)CO)cc1.Cl` [Compound 11d]: the water solubility entry in “Water solubility” was “water-soluble”.

As for `Cl.OC[C@H](O)CN1[C@H](CCc2ccc(OC(F)F)cc2)CC[C@@H]1CCc1ccc(OC(F)F)cc1` [Compound 11f], the water solubility entry in “Water solubility” was “water-soluble”.
